Source: ChEMBL document CHEMBL2380251, “Antiproliferative activity of 2,3-disubstituted indoles toward apoptosis-resistant cancers cells” (2013)
Active and inactive are the calls of the source. No cut-off for these calls is given here.

Tests used:
SK-MEL-28 [1] = assay: Growth inhibition of apoptosis-resistance human SK-MEL-28 cells after 72 hrs by MTT assay; assay type: functional; conditions: SK-MEL-28, 72 h
A549 [2] = assay: Growth inhibition of apoptosis-resistance human A549 cells after 72 hrs by MTT assay; assay type: functional; conditions: A549, 72 h
[3] = Growth inhibition of apoptosis-resistance human U373 cells after 72 hrs by MTT assay; assay type: functional, U-373MG ATCC; conditions: U373 MG
Hs 683 = assay: Growth inhibition of apoptosis-sensitive human Hs 683 cells after 72 hrs by MTT assay; assay type: functional; conditions: Hs 683, 72 h
B16-F10 = assay: Growth inhibition of apoptosis-resistance mouse B16F10 cells after 72 hrs by MTT assay; assay type: functional; conditions: B16-F10, 72 h
SK-MEL-28 [4] = assay: Induction of membrane permeabilization in apoptosis-resistance human SK-MEL-28 cells at GI50 after 72 hrs by propidium iodide staining-based flow cytometric analysis; assay type: functional, cell-based
A549 [5] = assay: Induction of membrane permeabilization in apoptosis-resistance human A549 cells at GI50 after 72 hrs by propidium iodide staining-based flow cytometric analysis; assay type: functional, cell-based
A549 [6] = assay: Cytostatic activity against apoptosis-resistance human A549 cells assessed as cell growth at GI50 after 72 hrs by phase contrast microscopic analysis relative to control; assay type: functional
SK-MEL-28 [7] = assay: Cytostatic activity against apoptosis-resistance human SK-MEL-28 cells assessed as cell growth at GI50 after 72 hrs by phase contrast microscopic analysis relative to control; assay type: functional
SK-MEL-28 [8] = assay: Induction of apoptosis in apoptosis-resistance human SK-MEL-28 cells at GI50 after 72 hrs by phase contrast microscopic analysis; assay type: functional, cell-based
A549 [9] = assay: Induction of apoptosis in apoptosis-resistance human A549 cells at GI50 after 72 hrs by phase contrast microscopic analysis; assay type: functional, cell-based

SMILES: O=C(CSCc1ccccc1)Nc1c(-c2ccccc2)[nH]c2ccccc12
- GI50 (SK-MEL-28 [1]): 30 µM
- GI50 (A549 [2]): 30 µM
- GI50 [3]: 47 µM
- GI50 (Hs 683): 33 µM
- GI50 (B16-F10): 35 µM

SMILES: CCOC(=O)C1CCN(C(=S)Sc2c(-c3ccc(Br)cc3)[nH]c3ccccc23)CC1
- GI50 (SK-MEL-28 [1]): 36 µM
- GI50 (A549 [2]): 34 µM
- GI50 [3]: 35 µM
- GI50 (Hs 683): 36 µM
- GI50 (B16-F10): 27 µM

SMILES: Cc1ccc2[nH]c(-c3ccccc3)c(-n3nc(C)cc3C)c2c1
- GI50 (SK-MEL-28 [1]): 33 µM
- GI50 (A549 [2]): 26 µM
- GI50 [3]: 10 µM
- GI50 (Hs 683): 29 µM
- GI50 (B16-F10): 40 µM

SMILES: Cc1cc(C)n(-c2c(-c3ccccc3)[nH]c3ccccc23)n1
- GI50 (SK-MEL-28 [1]): 84 µM
- GI50 (A549 [2]): 61 µM
- GI50 [3]: 84 µM
- GI50 (Hs 683): 67 µM
- GI50 (B16-F10): > 100 µM

SMILES: OC1CCCN(C(=S)Sc2c(-c3ccc(Br)cc3)[nH]c3ccc(Cl)cc23)C1 (stereo unspecified)
- GI50 (SK-MEL-28 [1]): 34 µM
- GI50 (A549 [2]): 29 µM
- GI50 [3]: 39 µM
- GI50 (Hs 683): 31 µM
- GI50 (B16-F10): 37 µM

SMILES: CCN(CC)C(=S)Sc1c(-c2ccc(Br)cc2)[nH]c2ccc(Br)cc12
- GI50 (SK-MEL-28 [1]): 29 µM
- GI50 (A549 [2]): 22 µM
- GI50 [3]: 9 µM
- GI50 (Hs 683): 22 µM
- GI50 (B16-F10): 33 µM

SMILES: Clc1ccc(Sc2c(-c3ccc(Br)cc3)[nH]c3ccccc23)cc1
- GI50 (SK-MEL-28 [1]): 26 µM
- GI50 (A549 [2]): 26 µM
- GI50 [3]: 24 µM
- GI50 (Hs 683): 25 µM
- GI50 (B16-F10): 35 µM

SMILES: S=C(Sc1c(-c2ccc(Br)cc2)[nH]c2ccccc12)N1CCOCC1
- GI50 (SK-MEL-28 [1]): 35 µM
- GI50 (A549 [2]): 31 µM
- GI50 [3]: 43 µM
- GI50 (Hs 683): 32 µM
- GI50 (B16-F10): 20 µM

SMILES: CCN(CC)C(=S)Sc1c(-c2ccccc2)[nH]c2ccc(Br)cc12
- GI50 (SK-MEL-28 [1]): 28 µM
- GI50 (A549 [2]): 31 µM
- GI50 [3]: 36 µM
- GI50 (Hs 683): 26 µM
- GI50 (B16-F10): 40 µM

SMILES: Clc1ccc(Sc2c(-c3ccc(Cl)cc3)[nH]c3ccccc23)cc1
- Activity (SK-MEL-28 [4]): inactive
- GI50 (SK-MEL-28 [1]): 34 µM
- GI50 (A549 [2]): 27 µM
- Activity (A549 [5]): inactive
- Activity (A549 [6]): 30%
- Activity (SK-MEL-28 [7]): 10%
- Activity (SK-MEL-28 [8]): inactive
- Activity (A549 [9]): inactive
- GI50 [3]: 28 µM
- GI50 (Hs 683): 31 µM
- GI50 (B16-F10): 28 µM

SMILES: O=C(Nc1c(-c2ccccc2)[nH]c2ccccc12)C12CC3CC(CC(C3)C1)C2
- GI50 (SK-MEL-28 [1]): 67 µM
- GI50 (A549 [2]): 38 µM
- GI50 [3]: 38 µM
- GI50 (Hs 683): 69 µM
- GI50 (B16-F10): 44 µM

SMILES: Clc1ccc(Oc2c(-c3ccc(Cl)cc3)[nH]c3ccc(Cl)cc23)cc1
- GI50 (SK-MEL-28 [1]): 19 µM
- GI50 (A549 [2]): 10 µM
- GI50 [3]: 13 µM
- GI50 (Hs 683): 13 µM
- GI50 (B16-F10): 10 µM

SMILES: Brc1ccc(/N=N/c2c(-c3ccc(Br)cc3)[nH]c3ccccc23)cc1
- GI50 (SK-MEL-28 [1]): 31 µM
- GI50 (A549 [2]): 23 µM
- GI50 [3]: 30 µM
- GI50 (Hs 683): 24 µM
- GI50 (B16-F10): 26 µM

SMILES: Clc1ccc(Oc2c(-c3ccc(Cl)cc3)[nH]c3ccc(Br)cc23)cc1
- GI50 (SK-MEL-28 [1]): 28 µM
- GI50 (A549 [2]): 30 µM
- GI50 [3]: 35 µM
- GI50 (Hs 683): 26 µM
- GI50 (B16-F10): 29 µM

SMILES: Cc1cc(C)n(-c2c(-c3cccs3)[nH]c3ccc(Cl)cc23)n1
- GI50 (SK-MEL-28 [1]): 35 µM
- GI50 (A549 [2]): 40 µM
- GI50 [3]: 32 µM
- GI50 (Hs 683): 32 µM
- GI50 (B16-F10): 36 µM

SMILES: Fc1ccc2[nH]c(-c3ccc(Cl)cc3)c(Oc3ccc(Cl)cc3)c2c1
- GI50 (SK-MEL-28 [1]): 24 µM
- GI50 (A549 [2]): 22 µM
- GI50 [3]: 20 µM
- GI50 (Hs 683): 22 µM
- GI50 (B16-F10): 14 µM
